Laboratory results published in patent US8338565B2, “Macrocyclic compounds for inhibition of tumor necrosis factor alpha” (Ensemble Therapeutics Corporation, priority 2008, dated 2012).
Where two headings read alike, the source gives them in different places. Numbered stars: 1 amine (or outer) side, 2 acyl side, 3 side chain; on linkers, the order of the positions; unused ones are H or OH. Bridge positions count the residues as written; N and C are the ends. Square brackets hold non-standard residues; d marks the D form. Peptide text beside a SMILES is read from it. * marks the point of attachment. Tartaroyl(2R,3R-(OAc)2) = CC(=O)O[C@@H](C(=O)[*:1])[C@@H](OC(C)=O)C(=O)[*:2]; Phe(4-CF3) = N[C@@H](Cc1ccc(C(F)(F)F)cc1)C(=O)O; Phe(4-COOH) = N[C@@H](Cc1ccc(C(=O)O)cc1)C(=O)O; Bip = N[C@@H](Cc1ccc(-c2ccccc2)cc1)C(=O)O; dPhe(4-NH2) = Nc1ccc(C[C@@H](N)C(=O)O)cc1; Phe(3-OMe) = COc1cccc(C[C@H](N)C(=O)O)c1; Phe(4-Br) = N[C@@H](Cc1ccc(Br)cc1)C(=O)O; Phe(4-NH2) = Nc1ccc(C[C@H](N)C(=O)O)cc1; Diglycolyl = O=C(COCC(=O)[*:2])[*:1]; d(hPhe) = N[C@H](CCc1ccccc1)C(=O)O; d2Thi = N[C@H](Cc1cccs1)C(=O)O; Suc = O=C(CCC(=O)[*:2])[*:1]; Aib = CC(C)(N)C(=O)O; Bn = c1ccc(C*)cc1; GABA = NCCCC(=O)O; βAla = NCCC(=O)O

Target: T1, TNFα / TNFα receptor (TNFα R1/Fc) (Homo sapiens, UniProt P01375)
T1 construct: purchased R&D Systems
T1 sequence (P01375 77-233 limits assumed, species assumed): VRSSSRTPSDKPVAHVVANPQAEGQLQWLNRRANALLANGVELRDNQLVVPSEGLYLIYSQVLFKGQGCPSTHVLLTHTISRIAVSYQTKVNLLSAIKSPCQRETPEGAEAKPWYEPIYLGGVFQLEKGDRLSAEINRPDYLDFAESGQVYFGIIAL
Assay: Inhibition of binding of TNFα to the TNFα receptor (plate ELISA competition)
Settings: Table 2
Procedure: The compounds listed in Table 2 below were assayed for ability to inhibit binding of TNFα to the TNFα receptor (TNFα R1/Fc). The assays were performed as described in the following procedure: TNFα (R&D Systems) was coated on high binding plate wells (Corning 96-well) at a single uniform concentration of 15 nM, 100 μL/well in PBS. The coating proceeded for 30 minutes at 37° C. then 10 minutes at 4° C. The coated plate was washed with PBST, then 250 μL/well of blocking solution (PBST 0.1% BSA, bovine serum albumin) was added and incubation proceeded for 30-45 minutes at room temperature with agitation. The solution phase competition proceeded separately with the dilutions of test compound in PBST (phosphate buffered saline with Tween 20), 2% DMSO in a polypropylene plate (Corning 96-well storage plate) with a single concentration, 8.33 nM of the high affinity receptor for TNFα (R&D Systems). This solution phase incubation proceeded for 30 minutes at room temperature with agitation and was then added to the washed TNFα coated assay plate, 100 μL/well, and was incubated for a further 30 minutes at room temperature with agitation. The assay plate was washed and 100 μL goat anti-human IgG (Fc) HRP labeled antibody in PBST, 13 pM, (KPL Cat#04-10-2) was added to each well. This incubation proceeded for 25-30 minutes at room temperature with agitation. Following this incubation step, the plate was washed and a 100 μL TMB solution (SUREBLUE™ TMB Peroxidase substrate, KPL) was added per well and allowed to stand approximately 3-5 minutes for development. The TMB reaction was stopped with the addition of 0.5N HCl and then the plate was read for absorbance at 450 nm.

[1] = read-out: Activity (IC50, inhibition of TNFα binding to TNFα R1/Fc)

## O=C(O)CCCNC(=O)[C@@H]1Cc2ccc(cc2)NC(=O)CCC(=O)N[C@H](CCc2ccccc2)C(=O)N[C@@H](Cc2ccc(-c3ccccc3)cc2)C(=O)N[C@H](Cc2ccccc2)C(=O)N1 [Compound 354] ([d(hPhe)][Bip][dF][Phe(4-NH2)][GABA]-OH; linker N-4 via Suc)
[1]
  IC50: > 100 µM

## O=C(O)[C@@H]1Cc2ccc(cc2)NC(=O)[C@H](O)[C@@H](O)C(=O)N[C@H](Cc2cccs2)C(=O)N[C@@H](Cc2ccc(OCc3ccccc3)cc2)C(=O)N[C@H](Cc2ccccc2)C(=O)N1 [Compound 177]
[1]
  IC50: 30 to 100 µM

## CS(=O)(=O)NC(=O)[C@@H]1Cc2ccc(cc2)OCC(=O)N[C@@H](Cc2ccncc2)C(=O)N[C@H](Cc2ccc(-c3ccccc3)cc2)C(=O)N[C@@H](CCc2ccccc2)C(=O)N1 [Compound 600]
[1]
  IC50: 10 to 30 µM

## O=C1COc2ccc(cc2)C[C@@H](C(=O)O)NC(=O)[C@H](Cc2ccc(-c3cccnc3)cc2)NC(=O)[C@@H](Cc2ccc(-c3ccccc3)cc2)NC(=O)[C@H](Cc2cccs2)N1 [Compound 633]
[1]
  IC50: < 10 µM

## CC(=O)N[C@H]1CC(=O)N[C@H](Cc2cccs2)C(=O)N[C@@H](Cc2ccc(-c3ccccc3)cc2)C(=O)N[C@H](Cc2ccccc2)C(=O)N[C@H](C(=O)O)Cc2ccc(cc2)NC1=O [Compound 377]
[1]
  IC50: > 100 µM

## O=C1COc2ccc(cc2)C[C@@H](C(=O)O)NC(=O)[C@H](Cc2ccccc2)NC(=O)[C@H](Cc2ccc(Br)cc2)NC(=O)[C@H](Cc2cccs2)N1 [Compound 359]
[1]
  IC50: > 100 µM

## O=C1CCC(=O)N[C@H](CCc2ccccc2)C(=O)N[C@@H](Cc2ccc(OCc3ccccc3)cc2)C(=O)N[C@H](Cc2ccccc2)C(=O)N[C@@H](C(=O)O)Cc2ccc(cc2)N1 [Compound 173] ([d(hPhe)]Y(Bn)[dF][dPhe(4-NH2)]-OH; linker N-4 via Suc)
[1]
  IC50: 10 to 30 µM

## O=C1N[C@@H](C(=O)O)Cc2ccc(cc2)NC(=O)[C@H](O)[C@@H](O)C(=O)N[C@@H](Cc2cccs2)C(=O)N[C@H](Cc2ccc(-c3ccccc3)cc2)C(=O)N[C@H]1Cc1ccccc1 [Compound 278]
[1]
  IC50: > 100 µM

## COC(=O)[C@@H]1Cc2ccc(cc2)NC(=O)CCC(=O)N[C@H](CC(=O)O)C(=O)N[C@@H](Cc2ccc(C(F)(F)F)cc2)C(=O)N[C@H](Cc2ccccc2)C(=O)N1 [Compound 206] ([dD][Phe(4-CF3)][dF][Phe(4-NH2)]-OMe; linker N-4 via Suc)
[1]
  IC50: > 100 µM

## N[C@H]1CC(=O)N[C@H](Cc2cccs2)C(=O)N[C@@H](Cc2ccc(-c3ccccc3)cc2)C(=O)N[C@H](Cc2ccccc2)C(=O)N[C@H](C(=O)O)Cc2ccc(cc2)NC1=O [Compound 373]
[1]
  IC50: > 100 µM

## O=C(O)CCNC(=O)[C@@H]1Cc2ccc(cc2)C(=O)NCCC(=O)N[C@H](CCc2ccccc2)C(=O)N[C@@H](Cc2ccc(-c3ccccc3)cc2)C(=O)N[C@H](Cc2ccccc2)C(=O)N1 [Compound 420] ([βAla][d(hPhe)][Bip][dF][Phe(4-COOH)][βAla]-OH; lactam N-5)
[1]
  IC50: > 100 µM

## O=C(O)CCCNC(=O)[C@@H]1Cc2ccc(cc2)NC(=O)CCC(=O)N[C@H](Cc2cccs2)C(=O)N[C@@H](Cc2ccc(-c3ccccc3)cc2)C(=O)N[C@H](CCc2ccccc2)C(=O)N1 [Compound 449] ([d2Thi][Bip][d(hPhe)][Phe(4-NH2)][GABA]-OH; linker N-4 via Suc)
[1]
  IC50: > 100 µM

## O=C1COc2ccc(cc2)C[C@@H](C(=O)O)NC(=O)[C@H](Cc2ccccc2)NC(=O)[C@@H](Cc2cccc(Cl)c2)NC(=O)[C@H](Cc2cccs2)N1 [Compound 356]
[1]
  IC50: > 100 µM

## N=C(N)NCCC[C@@H]1NC(=O)[C@H](Cc2ccc(-c3ccccc3)cc2)NC(=O)[C@@H](Cc2cccs2)NC(=O)CCC(=O)Nc2ccc(cc2)C[C@@H](C(=O)O)NC1=O [Compound 72] ([d2Thi][Bip]R[Phe(4-NH2)]-OH; linker N-4 via Suc)
[1]
  IC50: > 100 µM

## O=C1COc2ccc(cc2)C[C@@H](C(=O)NCS(=O)(=O)O)NC(=O)[C@H](CCc2ccccc2)NC(=O)[C@@H](Cc2ccc(-c3ccccc3)cc2)NC(=O)[C@H](Cc2ccc(-c3ccncc3)cc2)N1 [Compound 617]
[1]
  IC50: < 10 µM

## O=C1CCC(=O)N[C@H](Cc2ccccc2)C(=O)N[C@@H](Cc2ccc(-c3ccccc3)cc2)C(=O)N[C@H](CCc2ccccc2)C(=O)N[C@H](C(=O)N[C@@H](Cc2ccccc2)C(=O)O)Cc2ccc(cc2)N1 [Compound 456] ([dF][Bip][d(hPhe)][Phe(4-NH2)]F-OH; linker N-4 via Suc)
[1]
  IC50: > 100 µM

## CC(=O)N[C@H]1CC(=O)Nc2ccc(cc2)C[C@@H](C(=O)O)NC(=O)[C@@H](Cc2ccccc2)NC(=O)[C@H](Cc2ccc(-c3ccccc3)cc2)NC(=O)[C@@H](Cc2cccs2)NC1=O [Compound 375] (Ac-D[d2Thi][Bip][dF][Phe(4-NH2)]-OH; lactam 1-5)
[1]
  IC50: > 100 µM

## O=C1COCC(=O)N[C@H](Cc2cccs2)C(=O)N[C@@H](Cc2ccc(-c3ccccc3)cc2)C(=O)N[C@H](Cc2ccccc2)C(=O)N[C@H](C(=O)O)Cc2ccc(cc2)N1 [Compound 310] ([d2Thi][Bip][dF][Phe(4-NH2)]-OH; linker N-4 via Diglycolyl)
[1]
  IC50: > 100 µM

## CC(=O)O[C@H]1C(=O)Nc2ccc(cc2)C[C@@H](C(=O)O)NC(=O)[C@@H](Cc2ccccc2)NC(=O)[C@H](Cc2ccc(-c3ccccc3)cc2)NC(=O)[C@@H](Cc2cccs2)NC(=O)[C@@H]1OC(C)=O [Compound 223] ([d2Thi][Bip][dF][Phe(4-NH2)]-OH; linker N-4 via Tartaroyl(2R,3R-(OAc)2))
[1]
  IC50: 30 to 100 µM

## O=C1COc2ccc(cc2)C[C@@H](C(=O)NCc2nnn[nH]2)NC(=O)[C@H](CCc2ccccc2)NC(=O)[C@@H](Cc2ccc(-c3ccccc3)cc2)NC(=O)[C@H](Cc2c[nH]c3ccccc23)N1 [Compound 746]
Activity (IC50, inhibition of TNFα binding to TNFα R1/Fc)
  IC50: < 10 µM

## CC(C)(NC(=O)[C@@H]1Cc2ccc(cc2)NC(=O)CCC(=O)N[C@H](Cc2cccs2)C(=O)N[C@@H](Cc2ccc(-c3ccccc3)cc2)C(=O)N[C@H](Cc2ccccc2)C(=O)N1)C(=O)O [Compound 25] ([d2Thi][Bip][dF][Phe(4-NH2)][Aib]-OH; linker N-4 via Suc)
[1]
  IC50: < 10 µM

## O=C1COc2ccc(cc2)C[C@@H](C(=O)NCS(=O)(=O)O)NC(=O)[C@H](Cc2ccccc2F)NC(=O)[C@@H](Cc2ccc(-c3ccccc3)cc2)NC(=O)[C@H](Cc2cccs2)N1 [Compound 612]
[1]
  IC50: 10 to 30 µM

## CC(=O)O[C@H]1C(=O)Nc2ccc(cc2)C[C@@H](C(=O)O)NC(=O)[C@@H](CCc2ccccc2)NC(=O)[C@H](Cc2ccc(-c3ccccc3)cc2)NC(=O)[C@@H](Cc2ccccc2)NC(=O)[C@@H]1OC(C)=O [Compound 235] ([dF][Bip][d(hPhe)][Phe(4-NH2)]-OH; linker N-4 via Tartaroyl(2R,3R-(OAc)2))
[1]
  IC50: 10 to 30 µM

## O=C1CCC(=O)N[C@H](CCc2ccccc2)C(=O)N[C@@H](Cc2ccc(-c3ccccc3Cl)cc2)C(=O)N[C@H](Cc2ccccc2)C(=O)N[C@H](C(=O)O)Cc2ccc(cc2)N1 [Compound 170]
[1]
  IC50: 30 to 100 µM

## O=C(O)C[C@@H]1NC(=O)[C@H](Cc2ccc(-c3ccccc3)cc2)NC(=O)[C@@H](Cc2cccs2)NC(=O)CCC(=O)Nc2ccc(cc2)C[C@@H](C(=O)O)NC1=O [Compound 64] ([d2Thi][Bip]D[Phe(4-NH2)]-OH; linker N-4 via Suc)
[1]
  IC50: > 100 µM

## O=C1COc2ccc(cc2)C[C@@H](C(=O)O)NC(=O)[C@H](CCc2ccccc2)NC(=O)[C@@H](Cc2ccc(-c3ccccc3)cc2)NC(=O)C(c2ccccc2)N1 (some centres unmarked) [Compound 507]
[1]
  IC50: 10 to 30 µM

## O=C1CN(Cc2ccccc2)C(=O)[C@H](Cc2ccc(-c3ccccc3)cc2)NC(=O)[C@H](Cc2cccs2)NC(=O)COc2ccc(cc2)C[C@@H](C(=O)O)N1 [Compound 257]
[1]
  IC50: > 100 µM

## CC(C)C[C@@H]1NC(=O)[C@H](Cc2ccc(-c3ccccc3)cc2)NC(=O)[C@@H](Cc2cccs2)NC(=O)CCC(=O)Nc2ccc(cc2)C[C@@H](C(=O)O)NC1=O [Compound 54] ([d2Thi][Bip]L[Phe(4-NH2)]-OH; linker N-4 via Suc)
[1]
  IC50: > 100 µM

## O=C(O)CCCNC(=O)[C@@H]1Cc2ccc(cc2)NC(=O)[C@H](O)[C@@H](O)C(=O)N[C@H](Cc2cccs2)C(=O)N[C@@H](Cc2ccc(-c3ccccc3)cc2)C(=O)N[C@H](CCc2ccccc2)C(=O)N1 [Compound 402]
[1]
  IC50: 10 to 30 µM

## NCCCC[C@H](NC(=O)[C@@H]1Cc2ccc(cc2)NC(=O)[C@H](O)[C@@H](O)C(=O)N[C@H](Cc2cccs2)C(=O)N[C@@H](Cc2ccc(-c3ccccc3)cc2)C(=O)N[C@H](Cc2ccccc2)C(=O)N1)C(=O)O [Compound 296]
[1]
  IC50: 30 to 100 µM

## CC(=O)O[C@H]1C(=O)Nc2ccc(cc2)C[C@H](C(=O)O)NC(=O)[C@@H](CCc2ccccc2)NC(=O)[C@H](Cc2ccc(Br)cc2)NC(=O)[C@@H](Cc2cccs2)NC(=O)[C@@H]1OC(C)=O [Compound 219] ([d2Thi][Phe(4-Br)][d(hPhe)][dPhe(4-NH2)]-OH; linker N-4 via Tartaroyl(2R,3R-(OAc)2))
[1]
  IC50: < 10 µM

## COc1cccc(C[C@@H]2NC(=O)[C@@H](Cc3cccs3)NC(=O)CCC(=O)Nc3ccc(cc3)C[C@@H](C(=O)O)NC(=O)[C@@H](Cc3ccccc3)NC2=O)c1 [Compound 88] ([d2Thi][Phe(3-OMe)][dF][Phe(4-NH2)]-OH; linker N-4 via Suc)
[1]
  IC50: > 100 µM
